Data as given in US11197856B2, “Bicyclic compounds and methods for their use in treating autism” (priority 2013, dated 2021).

How the values were obtained:
[1] = test system: synaptophysin (SYN); experiment: PBBI in rats: synaptophysin (SYN) immunohistochemistry in hippocampus; format: in vivo, Sprague-Dawley rats; conditions: 30 mg/kg oral once daily
Procedure: The methods for producing PBBI in this Example is the same as described above for Example 26. Adult Sprague-Dawley rats were randomly assigned into three groups: sham (craniotomy only), PBBI+vehicle (i.e. H2O), and PBBI+cG-2-AllylP. cG-2-AllylP (or vehicle) was administered via oral gavage at 30 mg/kg at 30 min post-injury and continued once daily thereafter for 7, 14 or 28 days. At each treatment endpoint, rats were perfused and brains were processed for histological analysis (n=5-6/group/time-point). For detection of axonal sprouting, immunohistochemical detection of growth-associated protein-43 (GAP-43) was employed. Synaptogenesis was determined by immunohistochemistry for synaptophysin (SYN). For histological quantification, the integrated density in the hippocampal region was determined using NIH ImageJ software.

[2] = test system: fmr1-knockout mice and wild-type littermates; experiment: Successive Alleys Test; format: in vivo
Procedure: The fmr1-knockout (KO2) mice (C57BL/6 background) were housed in groups of the same genotype in a temperature and humidity controlled room with a 12-h light-dark cycle (lights on 7 am to […]). Testing was conducted during the light phase. Food and water were available ad libitum. Testing was conducted on fmr1-knockout mice and their wild-type littermates. Experiments were conducted according to requirements of the UK Animals (Scientific Procedures) Act, 1986. The animals were divided into four groups:
In one study, we used a “Successive Alleys Test” device. This device consists of four successive, linearly connected increasingly anxiogenic alleys. Each succeeding alley was painted a lighter color, had lower walls and/or was narrower than the previous alley. Animals were placed at the closed end of alley 1 (A1), facing the end wall. The latency to first enter each alley (A2, A3, and/or A4), the amount of time spent in each alley, and the number of entries into each alley were recorded during a total test time of 300 seconds.
For a Successive Alleys Test, we measured the number of entries in Alley 1 (A1), Alley 2 (A2), Alley 3 (A3), and Alley 4 (A4) for each of the 4 groups of animals described above.

[3] = test system: rats exposed to hypoxic-ischemic injury (HI); experiment: Hypoxic-ischemic injury (HI), modified Levine model, tissue damage score; format: in vivo, Wistar rats
Text: Adult rats (Wistar, 280-310 g, male) were used. The modified Levine model preparation and experimental procedures were used (Rice et al, 1981, Ann. Neurol. :9: 131-141; Guan et al J., 1993, Cereb. Blood Flow Metab.: 13(4): 609-16). These procedures in brief, consist of an HI injury induced by unilateral carotid artery ligation followed by inhalational asphyxia in the animals with an implanted lateral ventricular cannula. A guide cannula was stereotaxically placed on the top of the dura 1.3 mm to the right of the mid-line and 7.3 mm anterior to the interaural zero plane under halothane anaesthesia. The right carotid artery was double ligated two days after the cannulation. After 1 hour recovery from the anaesthesia, each of the rats were placed in an incubator where the humidity (90±5%) and temperature (31°±0.5° C.) were controlled for another hour, then exposed to hypoxia (6% oxygen) for 10 min. […]
Coronal sections 8 μm in thickness were cut from the striatum, cerebral cortex and hippocampus and were stained with thionin and acid fuchsin. The histological outcome was assessed at three levels: (1) the mid level of the striatum, (2) where the completed hippocampus first appeared and (3) the level where the ventral horn of the hippocampus just appears. The severity of tissue damage was scored in the striatum, cortex and the CA1-2, CA3, CA4 and dentate gyrus of the hippocampus. […]

[4] = test system: fmr1-knockout and wild-type animals; experiment: Contextual fear conditioning (freezing behavior); format: in vivo, mice
Text: Fear conditioning to either a cure or a context represents a form of associative learning that has been well used in many species. The dependent measure used in contextual (delay) fear conditioning is a freezing response that takes place following pairing of an unconditioned stimulus (foot shock), with a conditioned stimulus (CS), a particular context and/or such a cue. If in a conditioning context one administers a foot shock that is paired with atone, there will be learning not only to the tone, but also to the context.
Contextual fear conditioning is a bask conditioning procedure. It involves taking an animal and placing it in a novel environment, providing an aversive stimulus, and then removing it. […] Freezing is a response to fear, which has been defined as “absence of movement except for respiration.” This freezing behavior may last from seconds to minutes depending on the strength of the aversive stimulus, the number of presentations, and the degree of learning achieved by the subject.
The device used in this study is depicted in FIG. 27. An unconditioned stimulus (mild shock to the feet) was applied, and the conditioned stimulus was a tone applied along with the shock to the feet. Under these conditions, the animals associate the unconditioned stimulus with both the conditioned stimulus and the context of the stimuli. Animals were tested for […].

C=CC[C@]12CCCN1C(=O)CNC2=O [cG-2-AllylP, (8aS)-Allyl-hexahydropyrrolo[1,2-a]pyrazine-1,4-dione]
injury-induced reduction in SYN expression ([1]; 7d or 14d post-PBBI): no effect on injury-induced reductions
PBBI-induced reduction in SYN expression ([1]; 28 days post-injury): attenuated PBBI-induced reductions
number of entries into arm A1 ([2]; fmr1-knockout animals): about 4 times
number of entries into arm A2 ([2]; fmr1-knockout animals): about 4 times
number of entries into arm A3 ([2]; fmr1-knockout animals): about 4 times
number of entries into arm A4 ([2]; fmr1-knockout animals): about 3 times
open arm entries ([2]; fmr1-knockout animals vs vehicle, p<0.001): significant reduction in open arm entries
time spent in the center ([2]; fmr1-knockout animals vs vehicle, p<0.005): significant reduction
number of entries into arm A1 ([2]; wild-type animals): about 2 times
number of entries into arm A2 ([2]; wild-type animals): about 4 times
tissue damage score ([3]; 2 ng icv 2 hours after HI, each brain region, vs vehicle p<0.001): significantly reduced the tissue damage in each brain region examined
neural damage after hypoxia/ischemia ([3]; 2, 4, 20, 100 ng icv, all other sites and all other doses): lessened the neural damage effects of hypoxia/ischemia
time spent in freezing behavior [4]: substantial and statistically significant increase in the time spent in freezing behavior
